Source: patent publication US20250235456A1, “METHODS OF USE FOR AZA-QUINAZOLINE COMPOUNDS” (Iambic Therapeutics, Inc., priority 2024, published 2025)
Like-named read-outs stand apart in the source and are kept apart here.

What was measured:
CDK1/Cyclin B1 = CDK1/Cyclin B1 (Homo sapiens (Human), UniProt P06493); test: CDK1/Cyclin B1 ADP-Glo Kinase Assay; type: biochemical
Procedure, shortened: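 Purchased CDK1/Cyclin B1 was pre-incubated 30 min with inhibitor at room temperature, then reacted 90 min at room temperature after adding ATP-containing substrate. ADP formed was read by two-step ADP-Glo luminescence. IC50 came from a 4-parameter fit of fractional velocity versus inhibitor concentration.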

[1] = biological target: CDK2/Cyclin E1 full length (Homo sapiens (Human), UniProt P24941); test: CDK2/Cyclin E1 Full length ADP-Glo Kinase Assay; type: biochemical; conditions: read-out: CDK2/CyclinE1 IC50
Protocol: CDK2/Cyclin E1 Full length ADP-Glo Kinase Assay
The purpose of CDK2/Cyclin El assay is to evaluate the inhibition (% inhibition and IC50 values) of small molecule inhibitors by using a Luminescent based ADP-Glo assay. CDK2/Cyclin El full length catalyzes the production of ADP from ATP. ADP-Glo assay monitors ADP producing biochemical reactions. ADP-Glo is performed in 2 steps upon completion of kinase reaction: a combined termination of kinase reaction and depletion of remaining ATP in the first step, and conversion of generated ADP to ATP and the newly produced ATP to light output using luciferase/luciferin reaction in the second step. The luminescent signal generated is proportional to the ADP concentration produced and is correlated with the kinase activity. CDK2/Cyclin E1 was purchased from Eurofins (Cat 14-475M). […] The assay was initiated with the addition of ATP-containing substrate solution, following a 30-minute pre-incubation of enzyme and inhibitor at room temperature in the reaction mixture. The reaction was stopped after 90 minutes at room temperature by the addition of 10 μL of ADP-GLO Reagent. After a 90 minute incubation, 20 uL of Kinase Detection Reagent was added. Samples were incubated for 40 minutes, after which plate well luminescence was measured on a Envision microplate reader. The IC50 determinations were made from a plot of the fractional velocity as a function of inhibitor concentration fit to the 4 parameters IC50 equation.

CDK4/Cyclin D1 [2] = biological target: T1, CDK4/Cyclin D1 (Homo sapiens (Human), UniProt P11802); test: CDK4/Cyclin D1 CHEF Assay; type: biochemical; conditions: AQT; read-out: CDK4/CyclinD1 AQT IC50
Procedure, shortened: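 Peptide substrate AQT0258 carries a Sox fluorophore whose Mg(II)-dependent fluorescence (ex 360/em 485 nm) rises on phosphorylation. Enzyme and inhibitor pre-incubated 30 min at 22 °C, substrate added, reaction run 3 h at 22 °C. IC50 from 4-parameter fit of fractional velocity vs inhibitor concentration.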

CDK6/Cyclin D3 = CDK6/Cyclin D3 (Homo sapiens (Human), UniProt Q00534); test: CDK6/Cyclin D3 ADP-Glo Kinase Assay; type: biochemical; conditions: read-out: CDK6/CyclinD3 IC50
Procedure, shortened: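 Commercial CDK6/Cyclin D3 pre-incubated with inhibitor 30 min at room temperature, then reaction started with ATP/substrate and run 90 min at room temperature. ADP formed measured by ADP-Glo luminescence; IC50 from fractional velocity vs inhibitor concentration fit to a 4-parameter equation.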

MCF-7 cells = test: Cell Growth Inhibition, MCF-7 (CellTiterGlo, 6 days); type: cell-based
Text: (§1) MCF-7 and OVCAR-3 cells were used to evaluate the anti-proliferation activity of the CDK inhibitors. MCF-7 (ATCC, HTB-22) cells are epithelial cells from a patient with ER+ metastatic adenocarcinoma. OVCAR-3 (ATCC, HTB-161) cells were derived from malignant ascites of a patient with ovarian cancer and are known to have CCNE1 amplification. Both cell lines were maintained in RPMI media supplemented with 10% fetal bovine serum. For cell growth inhibition assay, CDK inhibitors in DMSO solution were dispensed with either Echo 655 (Beckman Coulter) or Tecan D300e (TIP) into 384-well plates (Corning #3765) and the 384-well plates were UV-sterilized prior to the assay. The inhibitors were typically tested in the 10-10,000 nM concentration range with half-log serial dilutions. MCF-7 or OVCAR-3 (500 cells/30 μL/well) were added to each well using Multidrop Combi (ThermoFisher) using standard cassettes. The assay plates with cells were cultured at 37° C., 5% CO2 for 6 days. At the end of the 6-day treatment, 30 μL of CellTiterGlo 2.0 (Promega) was added to each well and the luminescent signal was read using CLARIOstar plus (BMG). The percentage of cell growth inhibition (% CGI) was calculated using the following formula % CGI=100-100×luminescencesample/luminescenecontrol. The half maximal inhibitory concentration (IC50) was determined by nonlinear curve fitting (four parameters, variable slope).

OVCAR-3 cells = test: Cell Growth Inhibition, OVCAR-3 (CellTiterGlo, 6 days); type: cell-based
Text: as §1

CDK4/Cyclin D1 [3] = biological target: T1, CDK4/Cyclin D1; test: CDK4/Cyclin D1 Mobility Shift Assay (MSA); type: biochemical; conditions: read-out: CDK4/CyclinD1 MSA IC50
Text: CDK4/Cyclin D1 Mobility Shift Assay (MSA) The purpose CDK4/Cyclin D1 assay is to evaluate the inhibition (% inhibition and IC50 values) in the presence of small molecule inhibitors by using a fluorescence based microfluidic mobility shift assay. CDK4/Cyclin D1 catalyzes the production of ADP from ATP that accompanies the phosphoryl transfer to the substrate peptide 5-FAM-Dyrktide (5-FAM-[…]) (Perkin Elmer Peptide 34). The mobility shift assay (MSA) electrophoretically separates the fluorescently labelled peptides (substrate and phosphorylated product) following the kinase reaction. Both substrate and product are measured, and the ratio of these values is used to generate % conversion of substrate to product by the LabChip EZ Reader. Typical reaction solutions contained 2% DMSO (+/−inhibitor), 10 mM MgCl2, 1 mM EGTA, 0.05% BSA, 2 mM DTT, 0.2 mM ATP, 0.01% Brig-35, 1.5 uM 5-FAM-Dyrktide, 2.5 nM CDK4/Cyclin D1 in 50 mM HEPES buffer at pH 7.5. The reaction was initiated with the addition of substrate solution, following a 30-minute pre-incubation of enzyme and inhibitor at 22° C. in the reaction mix. The reaction was stopped after 180 minutes by the addition of 75 μL of 500 mM EDTA and measured on a Perkin Elmer EZ reader instrument. IC50 determinations were made from a plot of the fractional velocity as a function of inhibitor concentration fit to the 4 parameters IC50 equation.

T1 sequence (P11802 whole entry, species assumed): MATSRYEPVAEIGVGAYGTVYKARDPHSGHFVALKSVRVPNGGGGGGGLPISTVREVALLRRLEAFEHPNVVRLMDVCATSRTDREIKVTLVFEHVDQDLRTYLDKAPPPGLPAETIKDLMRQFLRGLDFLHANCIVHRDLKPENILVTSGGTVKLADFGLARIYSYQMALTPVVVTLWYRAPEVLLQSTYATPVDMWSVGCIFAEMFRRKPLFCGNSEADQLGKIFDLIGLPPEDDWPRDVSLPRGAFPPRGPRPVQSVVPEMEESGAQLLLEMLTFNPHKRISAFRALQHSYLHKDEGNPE
T1 sequence (P24385 whole entry partner, species assumed): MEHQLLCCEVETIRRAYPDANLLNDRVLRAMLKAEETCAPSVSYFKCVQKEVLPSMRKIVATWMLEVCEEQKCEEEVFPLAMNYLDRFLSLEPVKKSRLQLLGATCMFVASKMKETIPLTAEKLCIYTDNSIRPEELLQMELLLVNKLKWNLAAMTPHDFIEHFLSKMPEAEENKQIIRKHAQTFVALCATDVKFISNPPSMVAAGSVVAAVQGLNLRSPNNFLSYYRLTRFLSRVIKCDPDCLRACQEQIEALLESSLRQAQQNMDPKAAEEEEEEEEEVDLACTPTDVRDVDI
Sequence of CDK1/Cyclin B1 (P06493 whole entry): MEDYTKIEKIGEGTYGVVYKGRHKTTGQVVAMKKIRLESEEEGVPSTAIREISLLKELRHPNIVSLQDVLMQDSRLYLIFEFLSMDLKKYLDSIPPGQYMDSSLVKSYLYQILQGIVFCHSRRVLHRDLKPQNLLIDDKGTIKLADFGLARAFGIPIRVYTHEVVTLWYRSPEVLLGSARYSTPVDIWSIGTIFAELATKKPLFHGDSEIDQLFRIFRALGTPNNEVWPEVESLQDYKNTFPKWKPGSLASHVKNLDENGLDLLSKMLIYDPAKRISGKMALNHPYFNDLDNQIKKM
Sequence of CDK1/Cyclin B1 (P14635 whole entry partner): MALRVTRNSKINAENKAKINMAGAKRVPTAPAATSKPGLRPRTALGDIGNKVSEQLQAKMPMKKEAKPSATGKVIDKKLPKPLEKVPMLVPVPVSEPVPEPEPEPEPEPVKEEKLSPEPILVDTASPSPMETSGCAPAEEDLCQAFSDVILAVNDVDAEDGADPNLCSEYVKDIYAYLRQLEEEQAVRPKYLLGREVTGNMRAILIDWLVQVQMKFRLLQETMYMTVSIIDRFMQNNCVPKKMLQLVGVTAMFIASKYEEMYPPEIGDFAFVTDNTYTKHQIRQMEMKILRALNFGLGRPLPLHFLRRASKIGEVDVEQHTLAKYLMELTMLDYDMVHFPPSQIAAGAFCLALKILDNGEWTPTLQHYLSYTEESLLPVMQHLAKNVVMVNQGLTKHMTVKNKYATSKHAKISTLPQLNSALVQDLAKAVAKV
Sequence of CDK6/Cyclin D3 (Q00534 whole entry): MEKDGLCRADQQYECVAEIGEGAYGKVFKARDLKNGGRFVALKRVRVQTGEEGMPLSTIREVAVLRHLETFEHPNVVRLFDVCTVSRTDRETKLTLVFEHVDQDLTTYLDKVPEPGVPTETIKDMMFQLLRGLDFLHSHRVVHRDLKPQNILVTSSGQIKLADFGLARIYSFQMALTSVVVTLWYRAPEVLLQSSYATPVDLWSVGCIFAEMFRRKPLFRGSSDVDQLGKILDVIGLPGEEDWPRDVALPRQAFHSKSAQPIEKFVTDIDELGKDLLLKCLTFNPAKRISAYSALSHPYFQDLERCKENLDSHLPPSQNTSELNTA
Sequence of CDK6/Cyclin D3 (P30281 whole entry partner): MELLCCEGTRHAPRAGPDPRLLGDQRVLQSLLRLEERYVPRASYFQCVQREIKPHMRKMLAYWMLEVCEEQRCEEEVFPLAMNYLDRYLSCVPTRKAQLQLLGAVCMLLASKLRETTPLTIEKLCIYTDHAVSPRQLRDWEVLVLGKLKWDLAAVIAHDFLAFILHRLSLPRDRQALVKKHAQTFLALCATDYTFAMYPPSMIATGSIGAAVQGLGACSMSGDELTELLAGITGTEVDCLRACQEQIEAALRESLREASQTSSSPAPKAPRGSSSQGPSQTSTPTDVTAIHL

Row | Compound | IC50 (CDK1/Cyclin B1) [nM] | IC50 [1] [nM] | IC50 (CDK4/Cyclin D1 [2]) [nM] | IC50 (CDK6/Cyclin D3) [nM] | IC50 (MCF-7 cells) [nM] | IC50 (OVCAR-3 cells) [nM] | IC50 (CDK4/Cyclin D1 [3]) [nM] | IC50 (MCF-7 cells; Homo sapiens, MCF7, 144 h) [nM] | IC50 (OVCAR-3 cells; Homo sapiens, 144 h) [nM]
1 | 1-cyclopropyl-3-(6-methyl-2-((1-(methylsulfonyl)piperidin-4-yl)amino)pyrido[3,4-d]pyrimidin-8-yl)cyclobutan-1-ol [Compound 85] | < 200 | < 200 | < 200 | < 200 | 500 to 2000 | 500 to 2000 |  |  | 
2 | CS(=O)(=O)N1CCC(Nc2ncc3ccnc(N4C[C@H]5c6ccccc6S(=O)(=O)[C@H]5C4)c3n2)CC1 [Compound 16, (3aR,8bR)-2-(2-((1-(methylsulfonyl)piperidin-4-yl)amino)pyrido[3,4-d]pyrimidin-8-yl)-2,3,3a,8b-tetrahydro-1H-benzo[4,5]thieno [2,3-c]pyrrole 4,4-dioxide] | < 200 | < 200 |  | < 200 |  |  | < 200 |  | 
3 | CN1C[C@@H]2[C@H](C1)[C@H]2Nc1ncc2ccnc(N3CCC4(C3)CC4(F)F)c2n1 (stereo partly drawn) [Compound 17, 8-(1,1-difluoro-5-azaspiro[2.4]heptan-5-yl)-N-((1R,5S,6s)-3-methyl-3-azabicyclo[3.1.0]hexan-6-yl) pyrido[3,4-d]pyrimidin-2-amine] |  | 200 to 500 |  | 200 to 500 |  |  | < 200 |  | 
4 | CCN1CC2(C1)CN(c1ccc(Nc3ncc4ccnc(N5CCC6(C5)CC6(F)F)c4n3)nc1)C2 (stereo not shown) [Compound 21, 8-(1,1-difluoro-5-azaspiro[2.4]heptan-5-yl)-N-(5-(6-ethyl-2,6-diazaspiro[3.3]heptan-2-yl)pyridin-2-yl)pyrido[3,4-d]pyrimidin-2-amine] | > 2000 | 200 to 500 |  | < 200 |  |  | < 200 |  | 
5 | Cc1cc2cnc(NC3CCN(S(C)(=O)=O)CC3)nc2c(C2CC(O)(C(F)F)C2)n1 (stereo not shown) [Compound 93, 1-(difluoromethyl)-3-(6-methyl-2-((1-(methylsulfonyl)piperidin-4-yl)amino)pyrido[3,4-d]pyrimidin-8-yl)cyclobutan-1-ol] | < 200 |  | < 200 | < 200 |  |  |  | 500 to 2000 | 500 to 2000
